Assay results reported in publication PMC9266368, “Synthesis and Biological Evaluation of Small Molecules as Potential Anticancer Multitarget Agents” (International Journal of Molecular Sciences, 2022).

Key:
[1] = system: HT-29 (colon adenocarcinoma); assay: MTT cell viability assay, HT-29; type: cell-based; details: Homo sapiens, HT-29, 48 h, 2 days incubation, average ±SD of three experiments
Procedure: (§1) The effects of triazole derivatives 1–26 on the cell viability were determined by MTT assay, and the IC50 values were determined toward the human tumor cell lines HT-29 (colon adenocarcinoma), A-549 (lung adenocarcinoma), and MCF-7 (breast adenocarcinoma), as well as toward the non-tumor cell line HEK-293 (human embryonic kidney cells).
(§2) In 96-well plates, 3 × 10^3 (A549 and HEK-293) or 5 × 10^3 (HT-29, MCF-7) cells per well were incubated with serial dilutions of the tested compounds in a total volume of 100 μL of their growth media. The 3-(4,5-dimethylthiazol-2-yl)-2,5-diphenyltetrazolium bromide (MTT; Sigma Chemical Co.) dye reduction assay in 96-well microplates was used. After 2 days of incubation (37 °C, 5% CO2 in a humid atmosphere), 10 μL of MTT (5 mg/mL in phosphate-buffered saline, PBS) was added to each well, and the plate was incubated for a further 3 h (37 °C). After that, the supernatant was discarded and replaced by 100 µL of DMSO to dissolve formazan crystals. The absorbance was then read at 550 nm by spectro-photometry. For all concentrations of compound, cell viability was expressed as the percentage of the ratio between the mean absorbance of treated cells and the mean absorbance of untreated cells. Three independent experiments were performed, and the IC50 values (i.e., concentration half inhibiting cell proliferation) were graphically determined by using GraphPad Prism 4 software (2019).

[2] = system: A-549 (lung adenocarcinoma); assay: MTT cell viability assay, A-549; type: cell-based; details: Homo sapiens, A549, 48 h, 2 days incubation, average ±SD of three experiments
Procedure: as §1, §2

[3] = system: MCF-7 (breast adenocarcinoma); assay: MTT cell viability assay, MCF-7; type: cell-based; details: Homo sapiens, MCF7, 48 h, 2 days incubation, average ±SD of three experiments
Procedure: as §1, §2

[4] = system: HEK-293 (human embryonic kidney cells); assay: MTT cell viability assay, HEK-293; type: cell-based; details: HEK293, 48 h, 2 days incubation, non-tumor cell line, average ±SD of three experiments
Procedure: as §1, §2

membrane PD-L1 (mPD-L1) = molecular target: T1, membrane PD-L1 (mPD-L1) (Homo sapiens, UniProt Q9NZQ7); assay: Membrane PD-L1 relative quantification by flow cytometry; type: cell-based; details: 24 h, 100 or 10 μM (Table 7), percentage referred to DMSO control
T1 construct: endogenous in cells; host or cells: HT-29, A-549, MCF-7
Procedure: Based on antiproliferative activity of synthetized derivatives, we decided to study the effect of the amino derivatives 14–26 on the expression of both membrane targets PD-L1 and VEGFR-2 (mPD-L1 and mVEGFR-2). The evaluation was performed on three cancer cell lines (HT-29, A-549, and MCF-7) by flow cytometry after 24 h of treatment with the corresponding compounds. Compounds were used at a 100 or 10 μM concentration depending on their IC50 value (see Table 1 in Materials and Methods section). The presence of both targets in the membrane was relatively determined by using DMSO-treated cells as a negative control.
(§3) To study the effect of the compounds on every biological target in cancer cell lines the compounds were used at a 100 or 10 μM dose, depending on their IC50 and the treated cell line.
(§4) For the assay, 10^5 cells per well were incubated for 24 h with the corresponding dose of the tested compound in a total volume of 500 μL of their growth media.
To detect membrane PD-L1 and VEGFR-2, after the cell treatments, they were collected, fixed with 4% in PBS paraformaldehyde, and stained with FITC Mouse monoclonal Anti-Human VEGFR-2 (ab184903) and Alexa Fluor® 647 Rabbit monoclonal Anti-PD-L1 (ab215251).

[5] = molecular target: T2, membrane VEGFR-2 (mVEGFR-2) (Homo sapiens, UniProt P35968); assay: Membrane VEGFR-2 relative quantification by flow cytometry; type: cell-based; details: 24 h, 100 or 10 μM (Table 7), sorafenib 10 μM, percentage referred to DMSO control
T2 construct: endogenous in cells; host or cells: HT-29, A-549, MCF-7
Procedure: The presence of both targets in the membrane was relatively determined by using DMSO-treated cells as a negative control.
as §4

total PD-L1 (tPD-L1) = molecular target: T3, total PD-L1 (tPD-L1) (Homo sapiens, UniProt Q9NZQ7); assay: Total PD-L1 relative quantification by flow cytometry; type: cell-based; details: for tPD-L1 relative detection, A-549 / tPD-L1 relative detection, HT-29 / tPD-L1 relative detection, MCF-7: 24 h, 100 or 10 μM (Table 7), relative to DMSO control
T3 construct: endogenous in cells; host or cells: HT-29, A-549, MCF-7
Procedure: (§5) The study was carried out again on HT-29, A-549, and MCF-7 cell lines by flow cytometry after 24 h of treatment with the corresponding compounds. The presence of the targets in the whole cell were relatively determined by using DMSO-treated cells as a negative control and BMS-8 as a positive one for PD-L1 (Table 3).
as §3, §4
(§6) For the detection of total PD-L1, VEGFR-2, and c-Myc, the procedure was the same as for membrane targets, but after fixation, a treatment with 0,5% in PBS TritonTM X-100 was performed. The antibodies used for PD-L1 and VEGFR-2 were the ones previously described, and for the detection of c-Myc, it was FITC Rabbit monoclonal anti-c-Myc (ab223913).

c-Myc = c-Myc relative quantification by flow cytometry; type: cell-based, human; details: 24 h, 100 or 10 μM (Table 7), relative to DMSO control
Procedure: as §5, §3, §4, §6

T2 sequence (P35968 20-1356): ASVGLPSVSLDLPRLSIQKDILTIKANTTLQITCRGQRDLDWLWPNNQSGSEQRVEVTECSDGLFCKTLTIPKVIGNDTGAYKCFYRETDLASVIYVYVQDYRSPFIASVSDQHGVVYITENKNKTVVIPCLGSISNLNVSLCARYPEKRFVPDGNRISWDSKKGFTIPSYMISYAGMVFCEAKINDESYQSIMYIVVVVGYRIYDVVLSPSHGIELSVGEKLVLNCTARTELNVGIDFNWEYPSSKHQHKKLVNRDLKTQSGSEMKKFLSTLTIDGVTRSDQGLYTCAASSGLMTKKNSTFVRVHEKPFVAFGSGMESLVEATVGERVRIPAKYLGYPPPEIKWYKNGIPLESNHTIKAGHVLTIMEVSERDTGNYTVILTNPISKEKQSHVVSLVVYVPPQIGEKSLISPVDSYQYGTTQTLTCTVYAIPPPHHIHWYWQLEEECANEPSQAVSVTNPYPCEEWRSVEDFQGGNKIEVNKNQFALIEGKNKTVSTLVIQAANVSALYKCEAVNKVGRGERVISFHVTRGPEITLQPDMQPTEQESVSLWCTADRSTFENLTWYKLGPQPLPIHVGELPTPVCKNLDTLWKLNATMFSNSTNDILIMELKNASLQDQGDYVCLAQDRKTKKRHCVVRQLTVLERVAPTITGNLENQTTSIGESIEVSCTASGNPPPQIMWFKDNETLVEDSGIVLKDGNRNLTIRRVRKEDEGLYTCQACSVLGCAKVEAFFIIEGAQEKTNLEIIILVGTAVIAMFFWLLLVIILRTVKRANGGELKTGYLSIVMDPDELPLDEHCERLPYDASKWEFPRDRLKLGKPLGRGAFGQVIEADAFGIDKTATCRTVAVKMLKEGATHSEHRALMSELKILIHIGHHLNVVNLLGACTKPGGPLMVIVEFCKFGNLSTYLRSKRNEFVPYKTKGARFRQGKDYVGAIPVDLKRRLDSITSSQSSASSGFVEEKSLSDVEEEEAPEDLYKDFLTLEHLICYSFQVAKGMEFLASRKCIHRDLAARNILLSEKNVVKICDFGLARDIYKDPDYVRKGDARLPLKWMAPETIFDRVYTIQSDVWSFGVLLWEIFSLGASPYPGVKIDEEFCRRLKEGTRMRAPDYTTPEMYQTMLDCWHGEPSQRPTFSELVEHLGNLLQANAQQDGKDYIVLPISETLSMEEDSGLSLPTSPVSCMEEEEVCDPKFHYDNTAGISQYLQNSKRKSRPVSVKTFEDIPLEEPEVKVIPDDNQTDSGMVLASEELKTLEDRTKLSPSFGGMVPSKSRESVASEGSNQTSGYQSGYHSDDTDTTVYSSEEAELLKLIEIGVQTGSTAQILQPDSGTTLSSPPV
T3 sequence (Q9NZQ7 19-290): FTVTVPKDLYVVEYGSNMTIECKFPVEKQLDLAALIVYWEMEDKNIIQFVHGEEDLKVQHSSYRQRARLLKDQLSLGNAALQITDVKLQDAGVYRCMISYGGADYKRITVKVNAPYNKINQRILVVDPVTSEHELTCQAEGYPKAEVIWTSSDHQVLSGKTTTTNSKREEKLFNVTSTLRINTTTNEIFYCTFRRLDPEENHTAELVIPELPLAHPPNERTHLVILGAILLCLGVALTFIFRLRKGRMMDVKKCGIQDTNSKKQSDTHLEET
T1 sequence (Q9NZQ7 19-290): as above

melting point [°C] | IC50 [1] [µM] | IC50 [2] [µM] | IC50 [3] [µM] | mPD-L1 relative detection, A-549 (membrane PD-L1 (mPD-L1)) [%] | mPD-L1 relative detection, HT-29 (membrane PD-L1 (mPD-L1)) [%] | mPD-L1 relative detection, MCF-7 (membrane PD-L1 (mPD-L1)) [%] | mVEGFR-2 relative detection, A-549 [5] [%] | mVEGFR-2 relative detection, HT-29 [5] [%] | mVEGFR-2 relative detection, MCF-7 [5] [%] | tPD-L1 relative detection, A-549 (total PD-L1 (tPD-L1); A-549) [%] | tPD-L1 relative detection, HT-29 (total PD-L1 (tPD-L1)) [%] | tPD-L1 relative detection, MCF-7 (total PD-L1 (tPD-L1)) [%] | Inhibition of total PD-L1, A-549 (total PD-L1 (tPD-L1); A-549, compared to non-treated cells) [%] | Compound | IC50 [4] [µM] | c-Myc relative detection, A-549 (c-Myc) [%] | c-Myc relative detection, HT-29 (c-Myc) [%] | c-Myc relative detection, MCF-7 (c-Myc) [%]
86 to 88 | – | – | – | – | – | – | – | – | – | – | – | – | – | Clc1ccccc1Cn1cc(-c2ccccc2)nn1 [Compound 8, 1-(2-chlorobenzyl)-4-phenyl-1H-1,2,3-triazole] | – | – | – | –
108 to 110 | – | – | – | – | – | – | – | – | – | – | – | – | – | Clc1cccc(Cn2cc(-c3ccccc3)nn2)c1 [Compound 9, 1-(3-chlorobenzyl)-4-phenyl-1H-1,2,3-triazole] | – | – | – | –
141 to 144 | – | – | – | – | – | – | – | – | – | – | – | – | – | Clc1ccc(Cn2cc(-c3ccccc3)nn2)cc1 [Compound 10, 1-(4-chlorobenzyl)-4-phenyl-1H-1,2,3-triazole] | – | – | – | –
100 to 103 | – | – | – | – | – | – | – | – | – | – | – | – | – | Brc1ccccc1Cn1cc(-c2ccccc2)nn1 [Compound 11, 1-(2-bromobenzyl)-4-phenyl-1H-1,2,3-triazole] | – | – | – | –
96 to 99 | – | – | – | – | – | – | – | – | – | – | – | – | – | Brc1cccc(Cn2cc(-c3ccccc3)nn2)c1 [Compound 12, 1-(3-bromobenzyl)-4-phenyl-1H-1,2,3-triazole] | – | – | – | –
153 to 155 | – | – | – | – | – | – | – | – | – | – | – | – | – | Brc1ccc(Cn2cc(-c3ccccc3)nn2)cc1 [Compound 13, 1-(4-bromobenzyl)-4-phenyl-1H-1,2,3-triazole] | – | – | – | –
180 to 181 | 2 ± 1 | > 100 | 1 | >100 | >100 | 94 ± 5 | >100 | 95 ± 6 | >100 | 98 ± 3 | >100 | >100 | – | Nc1ccc(-c2cn(Cc3ccccc3)nn2)cc1 [Compound 14, 4-(1-benzyl-1H-1,2,3-triazol-4-yl)aniline] | > 100 | >100 | >100 | 60 ± 3
131 to 133 | 7 ± 1 | 4 ± 3 | 4 ± 1 | 90 ± 6 | 74 ± 13 | 84 ± 11 | >100 | 87 ± 1 | >100 | >100 | >100 | >100 | – | Cc1ccccc1Cn1cc(-c2ccc(N)cc2)nn1 [Compound 15, 4-(1-(2-methylbenzyl)-1H-1,2,3-triazol-4-yl)aniline] | > 100 | >100 | >100 | >100
128 to 129 | 9 ± 6 | 0.7 | 2.1 | 86 ± 17 | 66 ± 21 | >100 | >100 | 93 ± 1 | >100 | >100 | >100 | >100 | – | Cc1cccc(Cn2cc(-c3ccc(N)cc3)nn2)c1 [Compound 16, 4-(1-(3-methylbenzyl)-1H-1,2,3-triazol-4-yl)aniline] | 63 ± 34 | >100 | >100 | 78 ± 7
130 to 132 | 8 ± 2 | 1.7 | 4 ± 1 | 88 ± 21 | 87 ± 14 | 89 ± 5 | >100 | 81 ± 1 | >100 | 56 ± 19 | >100 | >100 | ~50 | Cc1ccc(Cn2cc(-c3ccc(N)cc3)nn2)cc1 [Compound 17, 4-(1-(4-methylbenzyl)-1H-1,2,3-triazol-4-yl)aniline] | 4 ± 2 | >100 | >100 | 63 ± 2
166 to 167 | > 100 | > 100 | > 100 | 89 ± 9 | 61 ± 22 | 81 ± 2 | >100 | 93 ± 1 | >100 | 91 ± 4 | 70 ± 11 | >100 | – | COc1ccccc1Cn1cc(-c2ccc(N)cc2)nn1 [Compound 18, 4-(1-(2-methoxybenzyl)-1H-1,2,3-triazol-4-yl)aniline] | > 100 | >100 | >100 | 53 ± 3
134 to 135 | 8.5 | – | 8 ± 4 | >100 | 87 ± 17 | 87 ± 17 | >100 | >100 | >100 | 76 ± 1 | 48 ± 7 | >100 | – | Nc1ccc(-c2cn(Cc3cccc(Br)c3)nn2)cc1 [Compound 25, 4-(1-(3-bromobenzyl)-1H-1,2,3-triazol-4-yl)aniline] | 4 ± 3 | >100 | >100 | 56 ± 10
– | 17 ± 4 | 27 ± 2 | 14 ± 4 | – | – | – | – | – | – | – | – | – | – | CNC(=O)c1cc(Oc2ccc(NC(=O)Nc3ccc(Cl)c(C(F)(F)F)c3)cc2)ccn1 [Sorafenib, sorafenib, reference compound] | 5 | – | – | –
